Structures can show the parent of a compound that is named as a salt. Where two headings read alike, the source gives them in different places. Blank lines part the entries; values can stand above or below the compound they belong to.
Columns and labels:
[1] = molecular target: T1, hMAO-B (Homo sapiens, UniProt P27338); test: MAO-Glo inhibition assay, hMAO-B; format: biochemical
T1 sequence (P27338 1-520): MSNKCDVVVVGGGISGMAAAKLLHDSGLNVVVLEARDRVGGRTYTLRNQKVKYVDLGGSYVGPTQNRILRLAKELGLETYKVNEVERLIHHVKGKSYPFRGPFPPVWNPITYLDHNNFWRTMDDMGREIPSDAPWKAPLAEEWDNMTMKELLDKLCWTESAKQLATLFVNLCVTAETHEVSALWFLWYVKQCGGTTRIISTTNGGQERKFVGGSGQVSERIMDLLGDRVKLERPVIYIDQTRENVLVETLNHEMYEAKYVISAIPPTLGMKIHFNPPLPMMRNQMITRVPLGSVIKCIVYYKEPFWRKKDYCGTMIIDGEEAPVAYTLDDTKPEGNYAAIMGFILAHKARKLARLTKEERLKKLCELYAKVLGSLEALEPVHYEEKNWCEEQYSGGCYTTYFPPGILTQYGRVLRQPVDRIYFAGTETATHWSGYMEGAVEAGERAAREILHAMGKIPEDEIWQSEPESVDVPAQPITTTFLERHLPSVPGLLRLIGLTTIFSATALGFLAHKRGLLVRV
Protocol: (§1) The inhibition and IC50 values of the identified C7-substituted coumarin analogues were assayed by Shanghai ChemPartner Co. Ltd., using MAO-GloTM assay kit (Promega Corporation, V1402). Two human MAO enzymes (Cat#31502, Cat#31503) were purchased from Active Motif. Clorgyline and R(-)-deprenyl were purchased as reference drugs from Sigma (Cat. No. M3778) and Abcam (Cat. No. ab120604), respectively. The MAO inhibition assays were carried out in modified HEPES buffer in light of the manufacturer’s protocol. Firstly, the tested compounds in DMSO were transferred to a 384-well plate by Echo. The enzyme solutions were then added into the plate and the plate was incubated for 15 min at room temperature (r.t.). Secondly, the luciferin derivative substrate was added to initiate the reaction. After 60 min incubation at r.t., the Luciferin detection reagent was added to each well to terminate the reaction and generate the luminescent signal. Before reading the signal, the plate was incubated for 20 min at r.t. Finally, plate reader was used to measure and record the luminescent signal and corresponding data were processed using GraphPad Prism 5.

[2] = molecular target: T2, hMAO-A (Homo sapiens, UniProt P21397); test: MAO-Glo inhibition assay, hMAO-A; format: biochemical
T2 sequence (P21397 1-527): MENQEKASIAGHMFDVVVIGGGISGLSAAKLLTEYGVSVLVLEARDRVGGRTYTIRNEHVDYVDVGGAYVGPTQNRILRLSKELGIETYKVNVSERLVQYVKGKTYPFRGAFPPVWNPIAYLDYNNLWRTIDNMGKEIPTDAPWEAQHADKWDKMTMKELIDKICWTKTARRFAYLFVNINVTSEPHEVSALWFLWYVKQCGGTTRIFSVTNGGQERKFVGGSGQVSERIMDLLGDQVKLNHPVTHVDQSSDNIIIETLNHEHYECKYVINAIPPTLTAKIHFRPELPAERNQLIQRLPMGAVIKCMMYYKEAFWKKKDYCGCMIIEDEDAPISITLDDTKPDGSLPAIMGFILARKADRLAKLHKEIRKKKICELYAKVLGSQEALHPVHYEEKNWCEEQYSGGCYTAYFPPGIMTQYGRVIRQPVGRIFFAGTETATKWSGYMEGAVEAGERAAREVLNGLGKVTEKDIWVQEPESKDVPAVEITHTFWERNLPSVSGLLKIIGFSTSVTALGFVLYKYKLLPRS
Protocol: as §1

[3] = molecular target: T2, hMAO-A; details: cited from earlier work
[4] = molecular target: T1, hMAO-B; details: cited from earlier work
[5] = Table S3, Esuprone derivatives, read-out: MAO-A* IC50
[6] = previously identified BRS-3D hits
[7] = pIC50 = −log(IC50), previously identified BRS-3D hits
[8] = previously identified BRS-3D hits, read-out: MAO-A IC50
[9] = purchased (Specs) or synthesized compounds
[10] = purchased (Specs) or synthesized compounds, read-out: MAO-A IC50
[11] = experimental activity of reference ligand C18 of 2V61, source not stated

IC50 ([1]; Table S3, Esuprone derivatives): > 100000 nM | IC50 [2, 5]: 1400 nM | melting point: 92 °C
SMILES: CCS(=O)(=O)Oc1ccc2c(C3CC3)cc(=O)oc2c1 [7d, 4-Cyclopropyl-2-oxo-2H-chromen-7-yl ethanesulfonate]

SMILES: Cc1cc(=O)oc2c(C)c(OCC(=O)N(C)C)ccc12 [M29]
MAO-A Avg. Inh% at 10 uM [3, 6]: 75% | MAO-A pIC50 [3, 7]: 5.6 | IC50 [3, 8]: 2290 nM | MAO-B Avg. Inh% at 10 uM [4, 6]: 12% | MAO-B pIC50 [4, 7]: 4

IC50 ([1]; Table S3, Esuprone derivatives): 4900 nM | IC50 [2, 5]: 12 nM | melting point: 152 °C
SMILES: Cc1ccc(S(=O)(=O)Oc2ccc3c4c(c(=O)oc3c2C)CCC4)cc1 [5b, 6-Methyl-4-oxo-1,2,3,4-tetrahydrocyclopenta[c]chromen-7-yl 4-methylbenzenesulfonate]

inhibition at 10 µM [1]: 66% | IC50 [1, 9]: > 5000 nM | IC50 [2, 10]: 740 nM
SMILES: C=CCOC(=O)COc1ccc2c3c(c(=O)oc2c1C)CCCC3 [FR3]

IC50 [1, 9]: 15 nM | inhibition at 10 µM [2]: 28% | IC50 [2, 10]: > 10000 nM
SMILES: Cc1cc(=O)oc2cc(OCCOc3ccccc3)ccc12 [FR5]

inhibition at 10 µM [1]: 64% | IC50 [1, 9]: > 5000 nM | IC50 [2, 10]: 19 nM
SMILES: Cc1cc(=O)oc2c(C)c(Oc3nnc(-c4ccccc4)s3)ccc12 [SP1]

SMILES: CCS(=O)(=O)Oc1ccc2c(C)c(C)c(=O)oc2c1 [Esuprone, reference compound]
IC50 ([3]; comparison value under Table S3, MAO-A by context, source not stated, read-out: IC50 value of Esuprone): 10.7 nM

IC50 [2, 10]: 24 nM | melting point: 150 °C
SMILES: CCCc1cc(=O)oc2cc(Oc3nnc(-c4ccccc4)s3)ccc12 [7b, 7-((5-Phenyl-1,3,4-thiadiazol-2-yl)oxy)-4-propyl-2H-chromen-2-one]

SMILES: Cc1cc(=O)oc2cc(OCC(=O)N(C)C)ccc12 [M33]
MAO-A Avg. Inh% at 10 uM [3, 6]: 41% | MAO-B Avg. Inh% at 10 uM [4, 6]: 8%

SMILES: Cc1c(C)c2cc(Cl)c(OCC(=O)N(C)C)cc2oc1=O [M32]
MAO-A Avg. Inh% at 10 uM [3, 6]: 12% | MAO-A pIC50 [3, 7]: 4.1 | IC50 [3, 8]: 81300 nM | MAO-B Avg. Inh% at 10 uM [4, 6]: 90% | MAO-B pIC50 [4, 7]: 6.2 | IC50 ([4]; previously identified BRS-3D hits, read-out: MAO-B IC50): 600 nM

IC50 ([1]; Table S3, Esuprone derivatives): 2300 nM | IC50 [2, 5]: 11 nM | melting point: 150 to 151 °C
SMILES: CCS(=O)(=O)Oc1ccc2c3c(c(=O)oc2c1C)CCC3 [5a, 6-Methyl-4-oxo-1,2,3,4-tetrahydrocyclopenta[c]chromen-7-yl ethanesulfonate]

IC50 [1, 9]: 120 nM | IC50 [2, 10]: 21 nM | melting point: 110 to 112 °C
SMILES: CCCc1cc(=O)oc2c(C)c(Oc3nnc(-c4ccccc4)s3)ccc12 [7k, 8-Methyl-7-((5-phenyl-1,3,4-thiadiazol-2-yl)oxy)-4-propyl-2H-chromen-2-one]

IC50 [1, 9]: 18 nM | inhibition at 10 µM [2]: 23% | IC50 [2, 10]: > 10000 nM
SMILES: O=C(COc1ccc2c3c(c(=O)oc2c1)CCC3)c1ccc(Cl)cc1 [FR4]

SMILES: CNCc1cc(=O)oc2cc(OCc3cccc(Cl)c3)ccc12 [C18, reference compound]
MAO-A pIC50 [3, 11]: 4.8 | MAO-B pIC50 [4, 11]: 7

melting point: 144 to 146 °C
SMILES: CCCc1cc(=O)oc2c(C)c(OS(=O)(=O)c3ccc(C)cc3)ccc12 (as salt: benzenesulfonate) [7i, 8-Methyl-2-oxo-4-propyl-2H-chromen-7-yl 4-methylbenzenesulfonate]

IC50 ([1]; Table S3, Esuprone derivatives): 590 nM | IC50 [2, 5]: < 5 nM | IC50 ([2]; read-out: hMAO-A IC50): ~5 nM
SMILES: Cc1c(OS(=O)(=O)c2ccc([N+](=O)[O-])cc2)ccc2c3c(c(=O)oc12)CCC3 [5c, 6-Methyl-4-oxo-1,2,3,4-tetrahydrocyclopenta[c]chromen-7-yl 4-nitrobenzenesulfonate]
